Measurements: ChEMBL document CHEMBL5385872, “Design and syntheses of a bimolecular STING agonist based on the covalent STING antagonist” (Eur J Med Chem, 2023)
The source made the active and inactive calls.

Tests used:
[1] = biological target: Stimulator of interferon genes protein (Homo sapiens) (UniProt Q86WV6); assay: Induction of STING-dependent gene expression in human HT-1080 cells assessed as IFNbeta mRNA expression at 20 uM incubated for 8 hrs by qRT-PCR analysis; assay type: cell-based; details: filed as agonist
Stimulator of interferon genes protein (Homo sapiens), sequence (Q86WV6 whole entry): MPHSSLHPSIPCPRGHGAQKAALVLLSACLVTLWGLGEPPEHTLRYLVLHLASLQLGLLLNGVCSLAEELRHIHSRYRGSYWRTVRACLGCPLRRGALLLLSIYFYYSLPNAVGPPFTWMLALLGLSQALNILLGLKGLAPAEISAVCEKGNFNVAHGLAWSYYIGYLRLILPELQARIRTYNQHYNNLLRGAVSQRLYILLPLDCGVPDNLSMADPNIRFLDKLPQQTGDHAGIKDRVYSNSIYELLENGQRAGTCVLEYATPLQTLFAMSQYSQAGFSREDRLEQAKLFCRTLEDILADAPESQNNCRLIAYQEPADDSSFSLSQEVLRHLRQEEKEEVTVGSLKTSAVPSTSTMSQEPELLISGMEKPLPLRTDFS

[2] = biological target: T1, Stimulator of interferon genes protein (Mus musculus) (UniProt Q3TBT3); assay: Induction of STING-dependent gene expression in mouse BMDC cells assessed as IFNbeta mRNA expression at 20 uM incubated for 8 hrs by qRT-PCR analysis; assay type: cell-based; details: filed as agonist
T1 sequence (whole entry): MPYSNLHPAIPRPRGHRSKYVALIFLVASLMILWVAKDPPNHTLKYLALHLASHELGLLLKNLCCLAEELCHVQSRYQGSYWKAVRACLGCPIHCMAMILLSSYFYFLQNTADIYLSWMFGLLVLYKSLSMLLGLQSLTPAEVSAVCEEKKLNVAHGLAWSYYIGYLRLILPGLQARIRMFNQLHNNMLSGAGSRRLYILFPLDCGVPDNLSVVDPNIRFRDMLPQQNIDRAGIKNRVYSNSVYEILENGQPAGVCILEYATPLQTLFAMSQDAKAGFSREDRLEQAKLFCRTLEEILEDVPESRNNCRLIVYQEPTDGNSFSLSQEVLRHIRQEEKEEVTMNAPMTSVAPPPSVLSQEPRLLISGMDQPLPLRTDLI

[3] = biological target: Stimulator of interferon genes protein (Homo sapiens) (UniProt Q86WV6); assay: Induction of STING-dependent gene expression in human HT-1080 cells assessed as IFNalpha mRNA expression at 20 uM incubated for 8 hrs by qRT-PCR analysis; assay type: cell-based; details: filed as agonist
[4] = biological target: T1, Stimulator of interferon genes protein (Mus musculus); assay: Agonist activity at STING in mouse BMDC cells assessed as change in TBK1 phosphorylation (initially increase and then decreased) at 20 uM measured after 5 hrs by Western blot analysis; assay type: cell-based; details: filed as agonist
[5] = biological target: T1, Stimulator of interferon genes protein (Mus musculus); assay: Induction of STING dimerization in mouse BMDC cells assessed as dimerization (initially increase and then decreased) at 2.5 to 20 uM measured after 5 hrs by Western blot analysis; assay type: cell-based; details: filed as agonist, dose 2.5-20 µM
[6] = system: Mus musculus; assay: Induction of immune-activation effect in wild type female BALB/c mouse assessed as increase in serum IFNbeta level at 15 to 30 mg/kg, ip measured after 24 to 48 hrs by ELISA relative to control; assay type: functional, organism-based; details: dose 15-30 mg/kg, time 24-48 hrs
[7] = biological target: T1, Stimulator of interferon genes protein (Mus musculus); assay: Induction of STING dimerization in mouse BMDM cells assessed as dimerization (initially increase and then decreased) at 2.5 to 20 uM measured after 5 hrs by Western blot analysis; assay type: cell-based; details: filed as agonist, dose 2.5-20 µM
[8] = biological target: T1, Stimulator of interferon genes protein (Mus musculus); assay: Induction of STING-dependent gene expression in mouse BMDC cells assessed as IFNalpha mRNA expression at 20 uM incubated for 8 hrs by qRT-PCR analysis; assay type: cell-based; details: filed as agonist
[9] = biological target: T1, Stimulator of interferon genes protein (Mus musculus); assay: Agonist activity at STING in mouse BMDM cells assessed as change in TBK1 phosphorylation (initially increase and then decreased) at 20 uM measured after 5 hrs by Western blot analysis; assay type: cell-based; details: filed as agonist
[10] = biological target: Stimulator of interferon genes protein (Homo sapiens) (UniProt Q86WV6); assay: Induction of oligomerization of STING in HEK-293T cells stably expressing STING-Flag ( unknown origin) measured after 4 hrs by immunoprecipitation assay; assay type: cell-based; details: filed as agonist
[11] = system: Mus musculus; assay: Induction of immune-activation effect in wild type female BALB/c mouse assessed as increase in serum TNFalpha level at 15 to 30 mg/kg, ip measured after 24 to 48 hrs by ELISA relative to control; assay type: functional, organism-based; details: dose 15-30 mg/kg, time 24-48 hrs
[12] = system: HT-1080; assay: Induction of TBK1 phosphorylation in STING - knockout human HT1080 cells at 20 uM measured after 5 hrs by Western blot analysis; assay type: functional, cell-based
[13] = system: HT-1080; assay: Induction of TBK1 phosphorylation in human HT1080 cells at 20 uM measured after 5 hrs by Western blot analysis; assay type: functional, cell-based

Measured: Activity

O=C(NCCCCCCCNC(=O)c1ccc([N+](=O)[O-])o1)c1ccc([N+](=O)[O-])o1
not listed: [12] | [13]
active: all other assays above

O=C(NCCNCCNC(=O)c1ccc([N+](=O)[O-])s1)c1ccc([N+](=O)[O-])s1
active: [12] | [13]
